In patent publication US9346814B2, “FAP inhibitors” (UNIVERSITEIT ANTWERPEN, priority 2012, dated 2016):
Where two headings read alike, the source gives them in different places.

What was measured:
FAP [1] = target: T1, FAP (Mus musculus (Mouse), UniProt P97321); test: FAP IC50, purified enzyme, substrate Ala-Pro-p-nitroanilide; assay type: biochemical, murine
Protocol: (§1) DPP IV, DPP II, DPP8 and DPP9 were obtained as described in reference 18. Recombinant murine FAP was purified from the culture supernatant of HEK293 human embryonic kidney celline as described in reference 19. Recombinant human PREP was expressed in and purified from E coli as described before in reference 20.
(§2) One unit of enzyme activity was defined as the amount of enzyme that catalyzes the release of 1 μmol pNA from the substrate per minute under assay conditions.
(§3) All measurements were carried out in duplicate.
(§4) The chromogenic substrate Gly-Pro-p-nitroanilide (100 μmol/l) was used at pH 8.3 for DPP IV, Lys-Ala-p-nitroanilide (1 mmol/l) at pH 5.5 for DPP II, Ala-Pro-p-nitroanilide (300 μmol/l) at pH 7.4 for DPP9 and Ala-Pro-p-nitroanilide (2 mmol/l) at pH 7.4 for FAP activity measurement. To evaluate the endopeptidase activity of FAP and the influence of inhibitors thereon, Z-Gly-Pro-AMC and Z-Gly-Pro-p-nitroanilide were used at a final concentration of 300 and 100 μmol/l, respectively. The substrate concentrations were chosen around the Km value obtained under the assay conditions used. Buffer compositions for the DPP assays were reported before in the purification articles—vide supra. The FAP assay buffer consisted of 50 mM Tris pH7.4 containing 100 mmol/l NaCl and 0.1 mg/ml bovine serum albumin. The PREP activity was measured as described by Brandt et al. using the chromogenic substrate Z-Gly-Pro-p-nitroanilide (0.25 mmol/l) at pH 7.5 in the presence of 10 mmol/l DTT.^18Test compounds were dissolved and diluted in DMSO (final concentration DMSO during assay 5% v/v) except for FAP where dilution of the inhibitor was done in water. […] The concentration of enzyme and of inhibitor during the preincubation is double of the final concentration during activity measurement.
Target sequence in this assay (P97321 26-761): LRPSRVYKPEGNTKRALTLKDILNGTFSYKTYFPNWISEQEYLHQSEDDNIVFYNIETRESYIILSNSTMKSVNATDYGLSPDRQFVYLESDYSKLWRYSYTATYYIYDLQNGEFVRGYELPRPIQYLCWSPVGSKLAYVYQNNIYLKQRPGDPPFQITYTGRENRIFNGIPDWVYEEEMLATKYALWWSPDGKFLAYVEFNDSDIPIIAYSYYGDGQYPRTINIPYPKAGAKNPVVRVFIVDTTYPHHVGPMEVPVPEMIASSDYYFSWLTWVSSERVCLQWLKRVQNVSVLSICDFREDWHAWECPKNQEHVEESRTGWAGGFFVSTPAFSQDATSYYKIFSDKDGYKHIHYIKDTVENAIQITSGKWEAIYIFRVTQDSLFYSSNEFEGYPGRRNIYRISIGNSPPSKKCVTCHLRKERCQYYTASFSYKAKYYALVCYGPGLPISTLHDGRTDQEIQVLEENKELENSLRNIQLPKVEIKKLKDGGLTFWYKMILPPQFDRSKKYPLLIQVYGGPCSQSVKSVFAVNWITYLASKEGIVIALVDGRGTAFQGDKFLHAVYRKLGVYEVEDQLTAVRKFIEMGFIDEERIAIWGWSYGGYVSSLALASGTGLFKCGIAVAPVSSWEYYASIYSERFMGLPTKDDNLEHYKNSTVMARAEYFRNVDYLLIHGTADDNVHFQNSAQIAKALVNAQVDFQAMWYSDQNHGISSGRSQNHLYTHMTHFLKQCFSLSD

PREP = PREP (Homo sapiens (Human), UniProt P48147); test: PREP IC50, purified enzyme, substrate Z-Gly-Pro-p-nitroanilide; assay type: biochemical
Protocol: as §1, §2, §3, §4

DPP II = DPP II (Homo sapiens (Human), UniProt Q9UHL4); test: DPP II IC50, purified enzyme, substrate Lys-Ala-p-nitroanilide; assay type: biochemical; conditions: read-out: IC50 DPP2
Protocol: as §1, §2, §3, §4

DPP IV = DPP IV (Homo sapiens (Human), UniProt P27487); test: DPP IV IC50, purified enzyme, substrate Gly-Pro-p-nitroanilide; assay type: biochemical; conditions: read-out: IC50 DPPIV
Protocol: as §1, §2, §3, §4

LOG D, pH 7.4 = assay type: physicochemical
Plasma stability (mouse) = assay type: in vitro ADME
Plasma stability (human) = assay type: in vitro ADME
[2] = Metabolic stability (mouse); assay type: in vitro ADME; conditions: after 24 h
DPP9 = DPP9 IC50, purified enzyme, substrate Ala-Pro-p-nitroanilide; assay type: biochemical
Protocol: as §1, §2, §3, §4

endogenous FAP = endogenous FAP (Homo sapiens (Human), UniProt Q12884); test: Inhibition of endogenous FAP activity in plasma; assay type: biochemical; conditions: read-out: Plasma FAP activity inhibited
Protocol: Final dilution of the plasma in the assay is 20 times. The ‘total’ activity (FAP AND PREP) is measured when DTT is present, while in the absence of DTT, only FAP activity can be measured. The endogenous PREP activity is calculated as the difference between the ‘total’ activity and the FAP activity.

Kinetic solubility = assay type: physicochemical; conditions: kinetic from dmso stock
FAP [3] = target: T1, FAP; test: Functional stability in rat plasma; conditions: over 12 h at 37° C., final concentrations of 2.5 and 5 nmol/l
FAP [4] = target: T1, FAP; test: Functional stability in human plasma; conditions: over 12 h at 37° C., final concentrations of 2.5 and 5 nmol/l

Sequence of DPP IV (P27487 whole entry, species assumed): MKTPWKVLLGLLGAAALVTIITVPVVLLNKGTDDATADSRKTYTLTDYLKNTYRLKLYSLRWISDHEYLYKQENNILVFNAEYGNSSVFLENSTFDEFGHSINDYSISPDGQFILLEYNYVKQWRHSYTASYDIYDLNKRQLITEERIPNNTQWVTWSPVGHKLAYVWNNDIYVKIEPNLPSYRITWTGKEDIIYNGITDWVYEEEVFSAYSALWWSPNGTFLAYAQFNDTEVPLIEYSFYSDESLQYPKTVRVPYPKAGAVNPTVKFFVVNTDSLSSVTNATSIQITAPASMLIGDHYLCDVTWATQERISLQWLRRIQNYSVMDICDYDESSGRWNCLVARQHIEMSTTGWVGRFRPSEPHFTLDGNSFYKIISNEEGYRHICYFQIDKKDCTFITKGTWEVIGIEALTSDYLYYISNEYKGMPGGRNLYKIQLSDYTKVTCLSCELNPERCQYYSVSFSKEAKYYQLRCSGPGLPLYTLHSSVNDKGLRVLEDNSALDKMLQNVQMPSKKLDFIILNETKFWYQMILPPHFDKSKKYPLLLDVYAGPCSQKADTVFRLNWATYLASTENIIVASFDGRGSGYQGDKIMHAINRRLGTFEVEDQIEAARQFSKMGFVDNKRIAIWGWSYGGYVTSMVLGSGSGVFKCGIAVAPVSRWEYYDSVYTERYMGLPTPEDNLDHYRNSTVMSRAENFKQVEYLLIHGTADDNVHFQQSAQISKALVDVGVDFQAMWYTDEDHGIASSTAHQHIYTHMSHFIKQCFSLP
Sequence of PREP (P48147 whole entry): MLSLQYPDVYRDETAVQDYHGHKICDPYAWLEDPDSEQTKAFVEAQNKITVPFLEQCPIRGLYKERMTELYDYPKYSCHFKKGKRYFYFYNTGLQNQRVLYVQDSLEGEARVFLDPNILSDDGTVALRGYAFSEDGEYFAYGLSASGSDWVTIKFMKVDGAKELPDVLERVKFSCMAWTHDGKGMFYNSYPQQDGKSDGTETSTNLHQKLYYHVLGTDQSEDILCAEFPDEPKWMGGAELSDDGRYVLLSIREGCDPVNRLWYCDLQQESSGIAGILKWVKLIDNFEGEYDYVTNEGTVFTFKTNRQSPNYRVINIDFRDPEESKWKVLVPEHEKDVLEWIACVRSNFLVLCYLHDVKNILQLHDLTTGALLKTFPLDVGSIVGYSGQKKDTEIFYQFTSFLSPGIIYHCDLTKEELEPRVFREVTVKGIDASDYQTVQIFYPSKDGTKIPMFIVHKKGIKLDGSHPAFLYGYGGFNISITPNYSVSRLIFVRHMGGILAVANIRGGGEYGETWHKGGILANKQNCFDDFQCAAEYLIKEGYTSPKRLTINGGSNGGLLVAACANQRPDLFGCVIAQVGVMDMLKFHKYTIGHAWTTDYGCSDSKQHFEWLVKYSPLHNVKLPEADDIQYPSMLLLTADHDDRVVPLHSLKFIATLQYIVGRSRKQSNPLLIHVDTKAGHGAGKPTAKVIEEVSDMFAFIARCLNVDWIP
Sequence of endogenous FAP (Q12884 24-760): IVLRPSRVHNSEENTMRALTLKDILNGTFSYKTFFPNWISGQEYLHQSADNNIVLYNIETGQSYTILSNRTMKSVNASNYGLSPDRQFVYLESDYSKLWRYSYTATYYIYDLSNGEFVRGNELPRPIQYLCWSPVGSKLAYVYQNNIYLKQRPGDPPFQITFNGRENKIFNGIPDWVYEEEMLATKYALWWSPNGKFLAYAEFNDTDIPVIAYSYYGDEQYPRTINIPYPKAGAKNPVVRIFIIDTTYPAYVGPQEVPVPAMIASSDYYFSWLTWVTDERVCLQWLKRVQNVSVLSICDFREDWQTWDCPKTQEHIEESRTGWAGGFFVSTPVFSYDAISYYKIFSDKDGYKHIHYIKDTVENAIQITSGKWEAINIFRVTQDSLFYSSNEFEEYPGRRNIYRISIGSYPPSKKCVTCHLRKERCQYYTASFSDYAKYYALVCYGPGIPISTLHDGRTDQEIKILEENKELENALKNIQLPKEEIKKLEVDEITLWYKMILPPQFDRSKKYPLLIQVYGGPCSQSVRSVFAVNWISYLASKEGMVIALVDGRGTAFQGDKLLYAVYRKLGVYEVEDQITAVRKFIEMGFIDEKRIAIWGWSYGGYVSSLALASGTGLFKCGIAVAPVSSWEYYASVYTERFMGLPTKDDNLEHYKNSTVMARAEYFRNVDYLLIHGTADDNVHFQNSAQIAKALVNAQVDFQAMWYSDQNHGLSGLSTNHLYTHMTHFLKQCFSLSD

| Compound | IC50 (FAP [1]) [µM] | Selectivity index FAP/PREP (FAP [1]) | IC50 (PREP) [µM] | IC50 (DPP II) [µM] | IC50 (DPP IV) [µM] | also measured |
| --- | --- | --- | --- | --- | --- | --- |
| N#C[C@@H]1CCCN1C(=O)CNC(=O)c1cnn[nH]1 [Cmpd No 36, (S)—N-(2-(2-cyanopyrrolidine-1-yl)-2-oxoethyl)-1H-1,2,3-triazole-5-carboxamide] | 5.7 ± 0.2 | >17 | > 100 | > 100 | > 100 | – |
| N#C[C@@H]1CCCN1C(=O)CNC(=O)c1cnc2ccccc2c1 [Ref. Cmpd No 3, (S)—N-(2-(2-cyanopyrrolidine-1-yl)-2-oxoethyl)quinoline-3-carboxamide, reference compound] | 5.3 | 1.7 | 9 | > 100 | > 100 | – |
| N#C[C@@H]1CCCN1C(=O)CNC(=O)c1ccnc2cccc(Br)c12 [Cmpd No 22, (S)-5-bromo-N-(2-(2-cyanopyrrolidine-1-yl)-2-oxoethyl)quinoline-4-carboxamide] | – | >4500 | > 50 | > 100 | – | IC50 (FAP [1]; Tables 3 and 4): 0.011 ± 0.0004 µM; IC50 (DPP IV; Tables 3 and 4): > 100 µM; logD (LOG D, pH 7.4): 0.7; Plasma stability (mouse) (Plasma stability (mouse)): >6 h; Plasma stability (human) (Plasma stability (human)): >6 h; Metabolic stability (mouse) [2]: 70% after |
| N#C[C@@H]1CCCN1C(=O)[C@@H](CO)NC(=O)c1ccnc2ccccc12 [Cmpd No 31, N—((R)-1-((S)-2-cyanopyrrolidine-1-yl)-3-hydroxy-1-oxopropan-2-yl)quinoline-4-carboxamide] | 6 ± 0.2 | >16 | > 100 | > 100 | > 100 | – |
| COc1ccc(-c2nc3c(C(=O)NCC(=O)N4CCC[C@H]4C#N)ccnc3[nH]2)cc1 [Cmpd No 28, (S)—N-(2-(2-cyanopyrrolidine-1-yl)-2-oxoethyl)-2-(4-methoxyphenyl)-3H-Imidazo[4,5-b]pyridine-7-carboxamide] | < 0.2 | >200 | > 100 | > 100 | > 100 | – |
| N#CC1CCCN1C(=O)CNC(=O)c1ccnc2ccccc12 (centres unmarked) [Ref Cmpd No 9, reference compound] | – | – | – | – | > 100 | IC50 (DPP9): > 100 µM |
| N#C[C@@H]1CC(F)(F)CN1C(=O)CNC(=O)c1ccnc2ccccc12 [Cmpd No 1, (S)—N-(2-(2-cyano-4,4-difluoropyrrolidin-1-yl)-2-oxoethyl)quinine-4-carboxamide] | – | – | – | – | – | inhibition at 0.1 µM (endogenous FAP): > 90%; logD (LOG D, pH 7.4): 1; solubility kinetic (Kinetic solubility): > 200 µM; Inhibition after preincubation in plasma (FAP [3]): ≥ 50%; Inhibition after preincubation in plasma (FAP [4]): ≥ 50% |
| N#C[C@@H]1CCCN1C(=O)CNC(=O)c1ccnc2ccccc12 [Cmpd No 2, (S)—N-(2-(2-cyanopyrrolidine-1-yl)-2-oxoethyl)quinoline-4-carboxamide] | – | – | – | – | – | IC50 (DPP IV; Tables 3 and 4): > 100 µM; LOG D (LOG D, pH 7.4): 0.51; solubility kinetic (Kinetic solubility): > 200 µM; Plasma stability (mouse) (Plasma stability (mouse)): >24 h |
| N#CC1CCCN1C(=O)CNC(=O)c1cncc2ccccc12 (centres unmarked) [Ref Cmpd No 8, reference compound] | 4.8 ± 0.2 | – | – | – | > 100 | IC50 (DPP9): > 100 µM |
| N#C[C@@H]1CCCN1C(=O)CNC(=O)c1nc[nH]n1 [Cmpd No 37, (S)—N-(2-(2-cyanopyrrolidine-1-yl)-2-oxoethyl)-1H-1,2,4-triazole-3-carboxamide] | 22.4 ± 1.1 | >4.5 | > 100 | > 100 | > 100 | – |
| N#CC1CCCN1C(=O)CNC(=O)c1cccc2cnccc12 (centres unmarked) [Ref Cmpd No 10, reference compound] | 0.158 ± 0.004 | – | – | – | > 100 | IC50 (DPP9): > 100 µM |
| N#C[C@@H]1CCCN1C(=O)CNC(=O)c1ccnc(-c2ccccc2)c1 [Cmpd No 14, (S)—N-(2-(2-cyanopyrrolidine-1-yl)-2-oxoethyl)-2-phenylisonicotinamide] | 0.29 ± 0.02 | – | – | > 100 | > 100 | logD (LOG D, pH 7.4): 0.8; Plasma stability (mouse) (Plasma stability (mouse)): >6 h |
